Results as given in ChEMBL document CHEMBL5137042, “Tetrahydropyridin-4-ylpicolinoylglycines as novel and orally active prolyl hydroxylase 2 (PHD2) inhibitors for the treatment of renal anemia” (Eur J Med Chem, 2022).
Values belong to the compound of their own block, whether it stands above or below them. Calls of active or inactive are those of the source. No cut-off for these calls is given here.

Assays:
Egl nine homolog 1 = Egl nine homolog 1 (Homo sapiens, UniProt Q9GZT9); assay: Inhibition of PHD2 (181 to 426 residue) (unknown origin) measured by fluorescence polarization assay
[1] = Cytotoxicity against human Hep3B cells assessed as cell viability at 100 uM incubated for 24 hrs by CCK8 assay relative to control; type: toxicity, cell-based, Hep 3B2; conditions: read-out: Activity
Mus musculus [2] = assay: Induction of reticulocytes production in C57BL/6 mouse at 20 mg/kg, po measured at day 3 and 3 days post-dose; type: functional, organism-based; conditions: time 3.0 day
Hep3B = assay: Induction of HIF-alpha stabilization in human Hep3B cells assessed as fold increase in EPO transcriptional activity at 5 uM incubated for 12 hrs by qRT-PCR analysis; type: cell-based
[3] = Toxicity in ICR mouse assessed as spleen edema at 15 to 100 mg/kg, po administered every other day and measured after 14 days by H and E staining method; type: organism-based; conditions: in vivo, 336 h, dose 15-100 mg/kg, time 14 day
[4] = Toxicity in female ICR mouse assessed as change in lung to body weight ratio at 15 to 100 mg/kg, po administered every other day and measured after 14 days; type: organism-based; conditions: in vivo, 336 h, dose 15-100 mg/kg, time 14 day
[5] = Toxicity in ICR mouse assessed as kidney edema at 15 to 100 mg/kg, po administered every other day and measured after 14 days by H and E staining method; type: organism-based; conditions: in vivo, 336 h, dose 15-100 mg/kg, time 14 day
[6] = Hepatotoxicity in ICR mouse assessed as effect on […] level at 15 to 100 mg/kg, po administered every other day and measured after 14 days; type: toxicity, organism-based; conditions: in vivo, 336 h, dose 15-100 mg/kg, time 14 day
[7] = Toxicity in ICR mouse assessed as lung edema at 15 to 100 mg/kg, po administered every other day and measured after 14 days by H and E staining method; type: organism-based; conditions: in vivo, 336 h, dose 15-100 mg/kg, time 14 day
[8] = Renal toxicity in ICR mouse assessed as effect on […] level at 15 to 100 mg/kg, po administered every other day and measured after 14 days; type: organism-based; conditions: in vivo, 336 h, dose 15-100 mg/kg, time 14 day
[9] = Toxicity in female ICR mouse assessed as change in liver to body weight ratio at 15 to 100 mg/kg, po administered every other day and measured after 14 days; type: organism-based; conditions: in vivo, 336 h, dose 15-100 mg/kg, time 14 day
[10] = Toxicity in male ICR mouse assessed as change in liver to body weight ratio at 15 to 100 mg/kg, po administered every other day and measured after 14 days; type: organism-based; conditions: in vivo, 336 h, dose 15-100 mg/kg, time 14 day
Mus musculus [11] = assay: Induction of reticulocytes production in po dosed C57BL/6 mouse measured at day 3 and 3 days post-dose; type: functional, organism-based; conditions: dose 10-50 mg/kg, time 3.0 day, DDE = dose-dependent effect
[12] = Toxicity in male ICR mouse assessed as change in lung to body weight ratio at 15 to 100 mg/kg, po administered every other day and measured after 14 days; type: organism-based; conditions: in vivo, 336 h, dose 15-100 mg/kg, time 14 day
[13] = Toxicity in male ICR mouse assessed as change in kidney to body weight ratio at 15 to 100 mg/kg, po administered every other day and measured after 14 days; type: organism-based; conditions: in vivo, 336 h, dose 15-100 mg/kg, time 14 day
[14] = Toxicity in female ICR mouse assessed as change in spleen to body weight ratio at 15 to 100 mg/kg, po administered every other day and measured after 14 days; type: organism-based; conditions: in vivo, 336 h, dose 15-100 mg/kg, time 14 day
[15] = Toxicity in ICR mouse assessed as heart edema at 15 to 100 mg/kg, po administered every other day and measured after 14 days by H and E staining method; type: organism-based; conditions: in vivo, 336 h, dose 15-100 mg/kg, time 14 day
[16] = Renal toxicity in ICR mouse assessed as effect on BUN level at 15 to 100 mg/kg, po administered every other day and measured after 14 days; type: organism-based; conditions: in vivo, 336 h, dose 15-100 mg/kg, time 14 day
[17] = Toxicity in male ICR mouse assessed as change in spleen to body weight ratio at 15 to 100 mg/kg, po administered every other day and measured after 14 days; type: organism-based; conditions: in vivo, 336 h, dose 15-100 mg/kg, time 14 day
[18] = Toxicity in female ICR mouse assessed as change in kidney to body weight ratio at 15 to 100 mg/kg, po administered every other day and measured after 14 days; type: organism-based; conditions: in vivo, 336 h, dose 15-100 mg/kg, time 14 day
[19] = Toxicity in male ICR mouse assessed as change in heart to body weight ratio at 15 to 100 mg/kg, po administered every other day and measured after 14 days; type: organism-based; conditions: in vivo, 336 h, dose 15-100 mg/kg, time 14 day
[20] = Hepatotoxicity in ICR mouse assessed as effect on ALT level at 15 to 100 mg/kg, po administered every other day and measured after 14 days; type: toxicity, organism-based; conditions: in vivo, 336 h, dose 15-100 mg/kg, time 14 day
[21] = Toxicity in female ICR mouse assessed as change in heart to body weight ratio at 15 to 100 mg/kg, po administered every other day and measured after 14 days; type: organism-based; conditions: in vivo, 336 h, dose 15-100 mg/kg, time 14 day
[22] = Toxicity in ICR mouse assessed as increase in body weight at 15 to 100 mg/kg, po administered every other day and measured upto 14 days; type: organism-based; conditions: in vivo, 336 h, dose 15-100 mg/kg, time < 14 day
[23] = Toxicity in ICR mouse assessed as liver edema at 15 to 100 mg/kg, po administered every other day and measured after 14 days by H and E staining method; type: organism-based; conditions: in vivo, 336 h, dose 15-100 mg/kg, time 14 day

Egl nine homolog 1, sequence (Q9GZT9 whole entry): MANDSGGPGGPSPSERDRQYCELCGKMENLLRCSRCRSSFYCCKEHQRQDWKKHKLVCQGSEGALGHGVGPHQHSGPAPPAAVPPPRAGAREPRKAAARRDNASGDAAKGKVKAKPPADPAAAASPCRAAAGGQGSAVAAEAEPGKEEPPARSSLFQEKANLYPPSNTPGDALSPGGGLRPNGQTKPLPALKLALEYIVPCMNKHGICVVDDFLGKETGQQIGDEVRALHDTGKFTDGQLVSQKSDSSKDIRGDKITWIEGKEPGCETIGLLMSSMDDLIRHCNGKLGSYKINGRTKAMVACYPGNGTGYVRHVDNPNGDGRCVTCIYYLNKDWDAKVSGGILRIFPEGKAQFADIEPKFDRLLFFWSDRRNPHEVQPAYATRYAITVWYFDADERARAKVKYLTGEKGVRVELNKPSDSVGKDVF

IC50 (Egl nine homolog 1): 7.97 nM
SMILES: O=C(O)CNC(=O)c1ncc(C2=CCN(S(=O)(=O)Cc3ccc(C(F)(F)F)cc3)CC2)cc1O
viability at 24 h, 100 µM [1]: > 80% | Activity (Mus musculus [2]): Active

IC50 (Egl nine homolog 1): 27 nM
SMILES: O=C(O)CNC(=O)c1ncc(C2=CCN(S(=O)(=O)c3ccc(Cl)cc3)CC2)cc1O

IC50 (Egl nine homolog 1): 29.7 nM
SMILES: O=C(O)CNC(=O)c1ncc(C2=CCN(S(=O)(=O)c3ccc(Br)cc3)CC2)cc1O

IC50 (Egl nine homolog 1): 796 nM
SMILES: CC(C)(C)c1ccc(S(=O)(=O)N2CC=C(c3cnc(C(=O)NCC(=O)O)c(O)c3)CC2)cc1

IC50 (Egl nine homolog 1): 43.5 nM
SMILES: O=C(O)CNC(=O)c1ncc(C2=CCN(S(=O)(=O)c3ccc(F)cc3)CC2)cc1O

IC50 (Egl nine homolog 1): 6.31 nM
SMILES: O=C(O)CNC(=O)c1ncc(C2=CCN(S(=O)(=O)Cc3ccc(F)cc3)CC2)cc1O
viability at 24 h, 100 µM [1]: > 80% | Activity (Mus musculus [2]): Active

IC50 (Egl nine homolog 1): 6.95 nM
SMILES: O=C(O)CNC(=O)c1ncc(C2=CCN(S(=O)(=O)Cc3ccc(Br)cc3)CC2)cc1O
FC (Hep3B): 2 | viability at 24 h, 100 µM [1]: > 80% | Activity (Mus musculus [2]): Active

IC50 (Egl nine homolog 1): 6.14 nM
SMILES: O=C(O)CNC(=O)c1ncc(C2=CCN(S(=O)(=O)Cc3ccc(Cl)cc3)CC2)cc1O
viability at 24 h, 100 µM [1]: > 80% | Activity (Mus musculus [2]): Active

IC50 (Egl nine homolog 1): 22.4 nM
SMILES: O=C(O)CNC(=O)c1ncc(C2=CCN(S(=O)(=O)c3cccc4ccccc34)CC2)cc1O

IC50 (Egl nine homolog 1): 97.4 nM
SMILES: O=C(O)CNC(=O)c1ncc(C2=CCN(S(=O)(=O)c3ccc4ccccc4c3)CC2)cc1O

IC50 (Egl nine homolog 1): 50.9 nM
SMILES: O=C(O)CNC(=O)c1ncc(C2=CCN(S(=O)(=O)c3ccc(OC(F)(F)F)cc3)CC2)cc1O

IC50 (Egl nine homolog 1): 27 nM
SMILES: O=C(O)CNC(=O)c1ncc(C2=CCN(C(=O)Nc3ccc(Cl)cc3)CC2)cc1O

IC50 (Egl nine homolog 1): 132 nM
SMILES: O=C(O)CNC(=O)c1ncc(C2=CCN(S(=O)(=O)c3ccccc3)CC2)cc1O

IC50 (Egl nine homolog 1): 588 nM
SMILES: O=C(O)CNC(=O)c1ncc(C2CCN(Cc3ccc(Cl)cc3)CC2)cc1O

IC50 (Egl nine homolog 1): 25 nM
SMILES: O=C(O)CNC(=O)c1ncc(C2=CCN(C(=O)c3ccc(Cl)cc3)CC2)cc1O

IC50 (Egl nine homolog 1): 72.3 nM
SMILES: O=C(O)CNC(=O)c1ncc(C2=CCN(S(=O)(=O)c3ccc(C(F)(F)F)cc3)CC2)cc1O

IC50 (Egl nine homolog 1): 6.55 nM
SMILES: O=C(O)CNC(=O)c1ncc(C2=CCN(S(=O)(=O)Cc3ccc(OC(F)(F)F)cc3)CC2)cc1O
Activity [3]: Non-Toxic | Activity [4]: Non-Toxic | Activity [5]: Non-Toxic | Activity [6]: Non-Toxic | Activity [7]: Non-Toxic | Activity [8]: Non-Toxic | Activity [9]: Non-Toxic | Activity [10]: Non-Toxic | Activity (Mus musculus [11]): Dde | Activity [12]: Non-Toxic | Activity [13]: Non-Toxic | Activity [14]: Non-Toxic | Activity [15]: Non-Toxic | Activity [16]: Non-Toxic | Activity [17]: Non-Toxic | Activity [18]: Non-Toxic | Activity [19]: Non-Toxic | Activity [20]: Non-Toxic | viability at 24 h, 100 µM [1]: > 80% | Activity (Mus musculus [2]): Active | Activity [21]: Non-Toxic | Activity [22]: Non-Toxic | Activity [23]: Non-Toxic

IC50 (Egl nine homolog 1): 46.5 nM
SMILES: O=C(O)CNC(=O)c1ncc(C2=CCN(S(=O)(=O)c3cccs3)CC2)cc1O

IC50 (Egl nine homolog 1): 45.3 nM
SMILES: Cc1ccc(S(=O)(=O)N2CC=C(c3cnc(C(=O)NCC(=O)O)c(O)c3)CC2)cc1

IC50 (Egl nine homolog 1): 20.7 nM
SMILES: N#Cc1ccc(S(=O)(=O)N2CC=C(c3cnc(C(=O)NCC(=O)O)c(O)c3)CC2)cc1

IC50 (Egl nine homolog 1): 141 nM
SMILES: O=C(O)CNC(=O)c1ncc(C2=CCN(S(=O)(=O)c3cccc(F)c3)CC2)cc1O

IC50 (Egl nine homolog 1): 51.2 nM
SMILES: O=C(O)CNC(=O)c1ncc(C2=CCN(S(=O)(=O)c3cccnc3)CC2)cc1O

SMILES: O=C(O)CNC(=O)c1ncc(C2=CCN(Cc3ccc(Cl)cc3)CC2)cc1O
IC50 (Egl nine homolog 1): 73.9 nM

IC50 (Egl nine homolog 1): 18.2 nM
SMILES: O=C(O)CNC(=O)c1ncc(C2=CCN(S(=O)(=O)Cc3ccccc3)CC2)cc1O

IC50 (Egl nine homolog 1): 82.8 nM
SMILES: O=C(O)CNC(=O)c1ncc(C2=CCN(S(=O)(=O)c3ccccc3F)CC2)cc1O
